For 25 compounds, IC50 results are on record in patent US8134015B2, “Compound inhibiting in vivo phosphorous transport and medicine containing the same” (Kyowa Hakko Kirin Co., Ltd., priority 2003, dated 2012).

The assay concerns the target T1, rat NaPi-2b (Rattus norvegicus, UniProt Q9JJ09).
T1 construct: expressed in transfected cells; host or cells: Xenopus oocytes injected with cRNA
T1 sequence (Q9JJ09 1-695): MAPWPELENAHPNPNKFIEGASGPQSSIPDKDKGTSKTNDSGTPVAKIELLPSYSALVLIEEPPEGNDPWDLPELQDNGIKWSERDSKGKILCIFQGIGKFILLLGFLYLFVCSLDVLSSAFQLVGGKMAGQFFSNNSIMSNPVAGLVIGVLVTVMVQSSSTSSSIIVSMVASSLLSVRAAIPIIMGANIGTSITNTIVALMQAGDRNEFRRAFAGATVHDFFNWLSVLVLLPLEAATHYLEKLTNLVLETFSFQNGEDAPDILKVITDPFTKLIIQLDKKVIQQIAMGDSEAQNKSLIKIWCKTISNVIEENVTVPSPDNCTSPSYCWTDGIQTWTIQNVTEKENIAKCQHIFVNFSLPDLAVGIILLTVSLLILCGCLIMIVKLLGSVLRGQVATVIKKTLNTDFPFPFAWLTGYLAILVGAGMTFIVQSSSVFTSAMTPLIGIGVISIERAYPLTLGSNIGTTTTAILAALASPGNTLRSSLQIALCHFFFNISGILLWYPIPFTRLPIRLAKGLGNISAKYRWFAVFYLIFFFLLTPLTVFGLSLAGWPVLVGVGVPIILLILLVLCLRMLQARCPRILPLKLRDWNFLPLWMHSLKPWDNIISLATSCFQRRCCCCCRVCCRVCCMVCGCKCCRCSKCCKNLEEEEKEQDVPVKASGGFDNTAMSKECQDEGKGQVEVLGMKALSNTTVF
In words: Sodium-dependent phosphate uptake of Xenopus oocytes which expressed NaPi-2b (32P). The format is cell-based. The following applies: Xenopus oocytes expressing rat NaPi-2b, 32P radioactive phosphorus; read-out: IC50 (phosphate uptake inhibitory activity). The essentials:
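Inhibition at 300 μM and 100 μM was read off one inhibition curve of 32P phosphate uptake. Uptake was measured in Xenopus oocytes cultured 2 days after injection of cRNA for cloned rat NaPi-2b.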

`CCN(CC)CCN(C)Cc1cccc(C(=O)Nc2scc(C)c2C(=O)N/N=C/c2ccc(C)c(C)c2)c1` [Compound 563, 3-{[(2-Diethylamino-ethyl)-methyl-amino]-methyl}-N-[3-(3,4-dimethyl-benzylidene-hydrazinocarbonyl)-4-methyl-thiophen-2-yl]-benzamide]: the half-inhibitory concentration (IC50) (as a rule, the midpoint of a concentration-inhibition curve) was below 1 µM.

Consider `CCN(CC)CCN(C)Cc1cccc(C(=O)Nc2scc(C)c2C(=O)N/N=C/c2ccc(C)cc2)c1` [Compound 564, 3-{[(2-Diethylamino-ethyl)-methyl-amino]-methyl}-N-[4-methyl-3-(4-methyl-benzylidene-hydrazinocarbonyl)-thiophen-2-yl]-benzamide], for which the IC50 was 11.6 µM.

Regarding `CCN(CC)CCN(C)Cc1cccc(C(=O)Nc2scc(C)c2C(=O)N/N=C/c2ccc(F)cc2)c1` [Compound 565, 3-{[(2-Diethylamino-ethyl)-methyl-amino]-methyl}-N-[3-(4-fluoro-benzylidene-hydrazinocarbonyl)-4-methyl-thiophen-2-yl]-benzamide], the IC50 is 13 µM.

Consider `CCN(CC)CCN(C)Cc1cccc(C(=O)Nc2scc(C)c2C(=O)N/N=C/c2cccc(F)c2)c1` [Compound 566, 3-{[(2-Diethylamino-ethyl)-methyl-amino]-methyl}-N-[3-(3-fluoro-benzylidene-hydrazinocarbonyl)-4-methyl-thiophen-2-yl]-benzamide], for which the 50% inhibitory concentration (IC50) was found to be 14.6 µM.

As for `CCN(CC)CCN(C)Cc1cccc(C(=O)Nc2scc(C)c2C(=O)N/N=C/c2ccc(Cl)c(C(F)(F)F)c2)c1` [Compound 567, N-[3-(4-Chloro-3-trifluoromethyl-benzylidene-hydrazinocarbonyl)-4-methyl-thiophen-2-yl]-3-{[(2-diethylamino-ethyl)-methyl-amino]-methyl}-benzamide], the IC50 was below 1 µM.

As for `CCN(CC)CCN(C)Cc1cccc(C(=O)Nc2scc(C)c2C(=O)N/N=C/c2ccc(OC)cc2)c1` [Compound 568, 3-{[(2-Diethylamino-ethyl)-methyl-amino]-methyl}-N-[3-(4-methoxy-benzylidene-hydrazinocarbonyl)-4-methyl-thiophen-2-yl]-benzamide], the IC50 came out at 4.32 µM.

Take `Cc1ccc(/C=N/NC(=O)c2c(C)csc2NC(=O)c2cccc(CN3CCC(N4CCCCC4)CC3)c2)cc1C` [Compound 569, 3-[1,4′]Bipiperidinyl-1′-ylmethyl-N-[3-(3,4-dimethyl-benzylidene-hydrazinocarbonyl)-4-methyl-thiophen-2-yl]-benzamide]: the IC50 is below 3 µM.

In the case of `Cc1ccc(/C=N/NC(=O)c2c(C)csc2NC(=O)c2cccc(CN3CCC(N4CCCCC4)CC3)c2)cc1` [Compound 570, 3-[1,4′]Bipiperidinyl-1′-ylmethyl-N-[4-methyl-3-(4-methyl-benzylidene-hydrazinocarbonyl)-thiophen-2-yl]-benzamide], the concentration for half-maximal inhibition (IC50) is 6.04 µM.

For `Cc1csc(NC(=O)c2cccc(CN3CCC(N4CCCCC4)CC3)c2)c1C(=O)N/N=C/c1ccc(F)cc1` [Compound 571, 3-[1,4′]Bipiperidinyl-1′-ylmethyl-N-[3-(4-fluoro-benzylidene-hydrazinocarbonyl)-4-methyl-thiophen-2-yl]-benzamide], the IC50 amounted to 5.27 µM.

As for `Cc1csc(NC(=O)c2cccc(CN3CCC(N4CCCCC4)CC3)c2)c1C(=O)N/N=C/c1cccc(F)c1` [Compound 572, 3-[1,4′]Bipiperidinyl-1′-ylmethyl-N-[3-(3-fluoro-benzylidene-hydrazinocarbonyl)-4-methyl-thiophen-2-yl]-benzamide], the IC50 was determined as 4.12 µM.

On to `Cc1csc(NC(=O)c2cccc(CN3CCC(N4CCCCC4)CC3)c2)c1C(=O)N/N=C/c1ccc(Cl)c(C(F)(F)F)c1` [Compound 573, 3-[1,4′]Bipiperidinyl-1′-ylmethyl-N-[3-(4-chloro-3-trifluoromethyl-benzylidene-hydrazinocarbonyl)-4-methyl-thiophen-2-yl]-benzamide], for which the 50% inhibitory concentration (IC50) was 1.75 µM.

Consider `COc1ccc(/C=N/NC(=O)c2c(C)csc2NC(=O)c2cccc(CN3CCC(N4CCCCC4)CC3)c2)cc1` [Compound 574, 3-[1,4′]Bipiperidinyl-1′-ylmethyl-N-[3-(4-methoxy-benzylidene-hydrazinocarbonyl)-4-methyl-thiophen-2-yl]-benzamide], for which the half-inhibitory concentration (IC50) worked out at 6.93 µM.

As to `Cc1ccc(/C=N/NC(=O)c2c(C)csc2NC(=O)c2cccc(CN3CCN(CCO)CC3)c2)cc1C` [Compound 575, N-[3-(3,4-Dimethyl-benzylidene-hydrazinocarbonyl)-4-methyl-thiophen-2-yl]-3-[4-(2-hydroxy-ethyl)-piperazin-1-ylmethyl]-benzamide], the half-maximal inhibitory concentration (IC50) was below 3 µM.

Turning to `Cc1ccc(/C=N/NC(=O)c2c(C)csc2NC(=O)c2cccc(CN3CCN(CCO)CC3)c2)cc1` [Compound 576, 3-[4-(2-Hydroxy-ethyl)-piperazin-1-ylmethyl]-N-[4-methyl-3-(4-methyl-benzylidene-hydrazinocarbonyl)-thiophen-2-yl]-benzamide], the IC50 was below 3 µM.

Turning to `Cc1csc(NC(=O)c2cccc(CN3CCN(CCO)CC3)c2)c1C(=O)N/N=C/c1ccc(F)cc1` [Compound 577, N-[3-(4-Fluoro-benzylidene-hydrazinocarbonyl)-4-methyl-thiophen-2-yl]-3-[4-(2-hydroxy-ethyl)-piperazin-1-ylmethyl]-benzamide], the IC50 is below 3 µM.

On to `Cc1csc(NC(=O)c2cccc(CN3CCN(CCO)CC3)c2)c1C(=O)N/N=C/c1cccc(F)c1` [Compound 578, N-[3-(3-Fluoro-benzylidene-hydrazinocarbonyl)-4-methyl-thiophen-2-yl]-3-[4-(2-hydroxy-ethyl)-piperazin-1-ylmethyl]-benzamide], for which the IC50 was below 3 µM.

For `Cc1csc(NC(=O)c2cccc(CN3CCN(CCO)CC3)c2)c1C(=O)N/N=C/c1ccc(Cl)c(C(F)(F)F)c1` [Compound 579, N-[3-(4-Chloro-3-trifluoromethyl-benzylidene-hydrazinocarbonyl)-4-methyl-thiophen-2-yl]-3-[4-(2-hydroxy-ethyl)-piperazin-1-ylmethyl]-benzamide], the IC50 is below 3 µM.

With `COc1ccc(/C=N/NC(=O)c2c(C)csc2NC(=O)c2cccc(CN3CCN(CCO)CC3)c2)cc1` [Compound 580, 3-[4-(2-Hydroxy-ethyl)-piperazin-1-ylmethyl]-N-[3-(4-methoxy-benzylidene-hydrazinocarbonyl)-4-methyl-thiophen-2-yl]-benzamide], the half-maximal inhibitory concentration (IC50) is below 3 µM.

On to `CCN(CC)CCNCc1cccc(C(=O)Nc2scc(C)c2C(=O)N/N=C/c2ccc(C)c(C)c2)c1` [Compound 581, 3-[(2-Diethylamino-ethylamino)-methyl]-N-[3-(3,4-dimethyl-benzylidene-hydrazinocarbonyl)-4-methyl-thiophen-2-yl]-benzamide], for which the IC50 was below 3 µM.

On to `CCN(CC)CCNCc1cccc(C(=O)Nc2scc(C)c2C(=O)N/N=C/c2ccc(C)cc2)c1` [Compound 582, 3-[(2-Diethylamino-ethylamino)-methyl]-N-[4-methyl-3-(4-methyl-benzylidene-hydrazinocarbonyl)-thiophen-2-yl]-benzamide], for which the IC50 is below 3 µM.

Regarding `CCN(CC)CCNCc1cccc(C(=O)Nc2scc(C)c2C(=O)N/N=C/c2ccc(F)cc2)c1` [Compound 583, 3-[(2-Diethylamino-ethylamino)-methyl]-N-[3-(4-fluoro-benzylidene-hydrazinocarbonyl)-4-methyl-thiophen-2-yl]-benzamide], the IC50 is below 3 µM.

As to `CCN(CC)CCNCc1cccc(C(=O)Nc2scc(C)c2C(=O)N/N=C/c2cccc(F)c2)c1` [Compound 584, 3-[(2-Diethylamino-ethylamino)-methyl]-N-[3-(3-fluoro-benzylidene-hydrazinocarbonyl)-4-methyl-thiophen-2-yl]-benzamide], the IC50 was below 3 µM.

For `CCN(CC)CCNCc1cccc(C(=O)Nc2scc(C)c2C(=O)N/N=C/c2ccc(Cl)c(C(F)(F)F)c2)c1` [Compound 585, N-[3-(4-Chloro-3-trifluoromethyl-benzylidene-hydrazinocarbonyl)-4-methyl-thiophen-2-yl]-3-[(2-diethylamino-ethylamino)-methyl]-benzamide], the half-maximal inhibitory concentration (IC50) was below 3 µM.

`CCN(CC)CCNCc1cccc(C(=O)Nc2scc(C)c2C(=O)N/N=C/c2ccc(OC)cc2)c1` [Compound 586, 3-[(2-Diethylamino-ethylamino)-methyl]-N-[3-(4-methoxy-benzylidene-hydrazinocarbonyl)-4-methyl-thiophen-2-yl]-benzamide]: the half-inhibitory concentration (IC50) was below 3 µM.

In the case of `Cc1ccc(/C=N/NC(=O)c2c(C)csc2NC(=O)c2cccc(CN(CC(C)O)CC(C)O)c2)cc1C` (stereo not shown) [Compound 587, 3-{[Bis-(2-hydroxy-propyl)-amino]-methyl}-N-[3-(3,4-dimethyl-benzylidene-hydrazinocarbonyl)-4-methyl-thiophen-2-yl]-benzamide], the IC50 was below 3 µM.
